Results reported in ChEMBL document CHEMBL3507680, “University of Dundee, Gates Library screen for HepG2 cell viability”.

Assay: Human HepG2 cell viability assay in 384 well format
Format: toxicity, cell-based
Set-up: dose 125 nL, time 70.5 hour; cytotoxicity at 70.5 h: concentration not given beside the values
Settings: HepG2 cells, read-out: Inhibition

CC(C)(C)CNC[C@H]1Cn2c(-c3ccccc3)cnc2CO1
cytotoxicity at 70.5 h: -3.54%

COCC(=O)N[C@H](C)c1onc(-c2ccccc2)c1C(=O)O
cytotoxicity at 70.5 h: -4.32%

COc1ccc(-c2noc([C@@H](C)NC(=O)CC(C)C)c2C(=O)O)cc1
cytotoxicity at 70.5 h: -8.52%

Cn1cc(CNC[C@H]2Cn3ccnc3CO2)c2ccccc21
cytotoxicity at 70.5 h: -5.61%

CNC(=O)C(C)(C)N1CCC[C@H]1C(=O)NC(C)(C)C
cytotoxicity at 70.5 h: 14.3%

CN1CCC(N2CCN3C(=O)NC[C@H]3C2)CC1
cytotoxicity at 70.5 h: -3.25%

O=C(NC[C@H]1OC[C@@H](NCc2ccc(F)cc2)[C@@H]1O)c1ccncc1
cytotoxicity at 70.5 h: 0.548%

OCCc1cc(CC2(NCc3ccncc3)COC2)no1
cytotoxicity at 70.5 h: -4.15%

O=C(NC[C@H]1OC[C@@H](NC2CCCCC2)[C@@H]1O)Nc1ccccc1
cytotoxicity at 70.5 h: 15.8%

COc1ccc2nc3n(c2c1)[C@@H](CNC(=O)c1cncnc1)COC3
cytotoxicity at 70.5 h: -2.36%

Cc1ccc2c(c1)nc1n2[C@@H](CNC(=O)c2ccccn2)COC1
cytotoxicity at 70.5 h: 11.4%

Cc1nc(C)c(CN2CCOC[C@H](Oc3ccccc3)C2)s1
cytotoxicity at 70.5 h: -10.6%

COc1ccc(CN2CCOC[C@H](OCc3ccccc3)C2)cc1
cytotoxicity at 70.5 h: -8.76%

COc1ccc(CN2CCOC[C@H](OCCC(C)C)C2)cc1
cytotoxicity at 70.5 h: -4.37%

Cc1cccc2c1nc1n2[C@@H](CNC(=O)c2cncnc2)COC1
cytotoxicity at 70.5 h: -3.15%

O=C(C1CCOCC1)N1CCN2C(=O)N(Cc3ccc(F)cc3)C[C@H]2C1
cytotoxicity at 70.5 h: -3.96%

c1ccc(O[C@H]2COCCN(Cc3c[nH]c4ccccc34)C2)cc1
cytotoxicity at 70.5 h: -6.76%

COc1ccc(O[C@H]2COCCN(C(=O)c3ccno3)C2)cc1
cytotoxicity at 70.5 h: -2.74%

CC(C)(C)CN1CCOC[C@H]1c1nc(-c2cccc(F)c2)c[nH]1
cytotoxicity at 70.5 h: -6.97%

CN1C[C@@H](F)[C@@H](OCc2nc3ccc(C#N)cc3[nH]2)C1
cytotoxicity at 70.5 h: -2.32%

CC(C)c1noc([C@@H]2Cc3[nH]cnc3CN2C(=O)Nc2ccccc2)n1
cytotoxicity at 70.5 h: 9.88%

O=C1CO[C@H]2CN(S(=O)(=O)c3ccccc3)C[C@H]2N1c1ccccc1
cytotoxicity at 70.5 h: -8.37%

O=C1CO[C@H]2CN(Cc3cccnc3)C[C@H]2N1
cytotoxicity at 70.5 h: -1.16%

Cc1noc([C@@H]2C[C@H](NC(=O)NC(C)C)CN2C)n1
cytotoxicity at 70.5 h: -0.832%

CC(=O)N1CCC(NC2(Cc3cc(CN(C)C)on3)COC2)CC1
cytotoxicity at 70.5 h: 11.9%

Cc1ccc(CNC2(Cc3cc(-c4ccc(F)cc4)on3)COC2)o1
cytotoxicity at 70.5 h: -2.05%

Cc1ccccc1C(=O)Nc1ccc([C@H]2OCC(=O)N(C)[C@@H]2CO)cc1
cytotoxicity at 70.5 h: -0.197%

COc1ccccc1CN1C[C@@H](F)[C@@H](OCc2nc3ncccc3[nH]2)C1
cytotoxicity at 70.5 h: -0.841%

Cc1cccc2c1nc1n2[C@@H](CNC(=O)NC(C)C)COC1
cytotoxicity at 70.5 h: -0.416%

Fc1ccc2c(c1)nc1n2[C@@H](CNCc2nccs2)COC1
cytotoxicity at 70.5 h: -7.36%

COc1ccc2nc(C[C@@H]3C[C@@H](C(C)C)[C@H](CN(C)C)C=C3C)[nH]c2n1
cytotoxicity at 70.5 h: -3.85%

CC(C)(C)C(=O)N1C[C@@H](F)[C@@H](OCc2nc3ncccc3[nH]2)C1
cytotoxicity at 70.5 h: -2.41%

N#Cc1cccc(CN2C[C@@H](F)[C@@H](OCc3nc4cnccc4[nH]3)C2)c1
cytotoxicity at 70.5 h: 11.4%

COc1cccc(CN2C[C@@H](F)[C@@H](OCc3nc4cnccc4[nH]3)C2)c1
cytotoxicity at 70.5 h: 2.35%

Fc1ccc2[nH]c(CO[C@H]3CN(CC4CC4)C[C@H]3F)nc2c1
cytotoxicity at 70.5 h: 1.66%

O=C(NC[C@H]1OC[C@@H](NC2CCC(F)(F)CC2)[C@@H]1O)Nc1ccccc1
cytotoxicity at 70.5 h: 0.362%

O=C(NC[C@H]1OC[C@@H](NC2CCOCC2)[C@@H]1O)C1CCCC1
cytotoxicity at 70.5 h: -6.06%

c1ccc(O[C@H]2COCCN(Cc3cccc4c3OCO4)C2)cc1
cytotoxicity at 70.5 h: -1.37%

Cc1cc(C(=O)N2CCOC[C@H](Oc3cccnc3)C2)c(C(F)(F)F)o1
cytotoxicity at 70.5 h: 9.27%

Cc1ccc(S(=O)(=O)NC[C@H]2OC[C@@H](NCc3cccs3)[C@@H]2O)cc1
cytotoxicity at 70.5 h: 7.42%

O=C(NC1CCCC1)O[C@H]1COCCN(c2nc3ccccc3o2)C1
cytotoxicity at 70.5 h: -3.6%

Cc1ccc(-c2cn3c(n2)CO[C@@H](CNCc2nccs2)C3)cc1
cytotoxicity at 70.5 h: -2.93%

O=C(c1ccno1)N1CCOC[C@H](Oc2ccccc2)C1
cytotoxicity at 70.5 h: -3.41%

O=S(=O)(Cc1ccccc1)NC[C@H]1Cn2ccnc2CO1
cytotoxicity at 70.5 h: 10.3%

CC(C)(C)CN[C@@H]1CO[C@H](CNC(=O)c2cccs2)[C@H]1O
cytotoxicity at 70.5 h: 4.02%

O=C(NC[C@H]1OC[C@@H](NC2CCC2)[C@@H]1O)Nc1ccccc1
cytotoxicity at 70.5 h: 16.4%

O=C1CCC2(CCCN(C(=O)Cc3ccccc3)C2)N1 (configuration not stated)
cytotoxicity at 70.5 h: 5.57%

O=C1CCC2(CCCN(C(=O)Cc3ccccn3)C2)N1 (configuration not stated)
cytotoxicity at 70.5 h: 2.4%

CC(=O)N1CCN(C(=O)Nc2ccccc2)CC2(CC(=O)N(C)C2)C1 (configuration not stated)
cytotoxicity at 70.5 h: 26.3%

Cc1ccc(C(=O)N2CCC3(CC2)CC(NC(=O)C(C)C)CO3)cc1 (configuration not stated)
cytotoxicity at 70.5 h: 5.27%

CC(C)NC(=O)N1CCOC2(CCCNC2)C1 (configuration not stated)
cytotoxicity at 70.5 h: 4.28%

CCCC(=O)N1CCC2(CC1)COC2
cytotoxicity at 70.5 h: -7.56%

O=S(=O)(c1ccccc1)N1C[C@@H]2CCN[C@@H]2C1
cytotoxicity at 70.5 h: -7.19%

O=C(N[C@]12CC1CN(C(=O)c1ccco1)C2)c1cccc(F)c1 (some centres not stated)
cytotoxicity at 70.5 h: 13.8%

O=C1NCCC12CN(CC1CC1)CC21CCNCC1 (configuration not stated)
cytotoxicity at 70.5 h: -6.52%

O=C(N[C@]12CC1CN(C(=O)c1ccco1)C2)c1ccco1 (some centres not stated)
cytotoxicity at 70.5 h: -2.69%

CN(Cc1ccco1)C1CCC12CCN(C(=O)c1ccncc1)CC2 (configuration not stated)
cytotoxicity at 70.5 h: -5.53%

Cc1ccc(S(=O)(=O)N2C[C@@H]3CCN[C@@H]3C2)cc1
cytotoxicity at 70.5 h: -4.81%

O=C1CCC2(CCCN(C(=O)c3cccnc3)CC2)N1 (configuration not stated)
cytotoxicity at 70.5 h: -3.4%

CN(C)C(=O)CN1CCC2(CC1)COC2
cytotoxicity at 70.5 h: -5.41%

CN1CCC2(CCN(C(=O)c3ccccc3)CC2)C1
cytotoxicity at 70.5 h: 31.4%

CC(C)C(=O)N1CCC2(CC1)[C@@H]1CN(C(=O)N(C)C)C[C@@H]1C(=O)N2C
cytotoxicity at 70.5 h: 28.3%

O=C(CO)N1C[C@H]2CC[C@@H]1CN(C1Cc3ccccc3C1)C2
cytotoxicity at 70.5 h: -8.88%

Cc1ncc(C)c(N2CCCC(CO)(Cc3cccc(Cl)c3)C2)n1 (configuration not stated)
cytotoxicity at 70.5 h: 1.75%

CNC(=O)c1ccc(OC2CCN(S(C)(=O)=O)CC2)c(Cl)c1
cytotoxicity at 70.5 h: 3.83%

CCn1ncnc1C(C)NC(=O)C1CCN(C(C)C)CC1 (configuration not stated)
cytotoxicity at 70.5 h: -8.56%

Cc1cc(C)c2nc(CN3CCOC(CCO)C3)cc(O)c2c1 (configuration not stated)
cytotoxicity at 70.5 h: -4.44%

COc1ccc(C2CC(=O)Nc3c2nc2n3CCCC2)cc1O (configuration not stated)
cytotoxicity at 70.5 h: -15.2%

O=C(c1cccc(=O)[nH]1)N(Cc1ccsc1)CC1CCCO1 (configuration not stated)
cytotoxicity at 70.5 h: 5.57%

Cc1ccc(S(=O)(=O)NC2CC2)cc1C
cytotoxicity at 70.5 h: -5.86%

O=C(c1ccncc1)N1C[C@@H]2CC[C@H](C1)N(C(=O)N1CCOCC1)C2
cytotoxicity at 70.5 h: -7.89%

CCCc1cc(CNC(=O)C2CCOc3ccccc3C2)on1 (configuration not stated)
cytotoxicity at 70.5 h: 2.98%

Cc1nnc(CCNC2CCN(c3ncnc4c(C)csc34)CC2)s1
cytotoxicity at 70.5 h: -2.85%

CC(C)NC(=O)c1nnn(-c2cccc(C(F)(F)F)c2)c1N
cytotoxicity at 70.5 h: -4.84%

COC(=O)c1cc(OCC2CCC2)cc(C(=O)N[C@@H]2CNCC[C@H]2O)c1
cytotoxicity at 70.5 h: 19.4%

COCCN(C)C[C@@H]1CN(C(=O)c2cccc(C(F)(F)F)c2)C[C@@H]1CO
cytotoxicity at 70.5 h: -9.39%

Cc1c[nH]c(CN(C)C(=O)C2CC(=O)N(Cc3ccncc3)C2)n1 (configuration not stated)
cytotoxicity at 70.5 h: 11.9%

Cc1cc(C)n(-c2cc(N3CCN(C(=O)C(C)(C)C)CC3)nc(C)n2)n1
cytotoxicity at 70.5 h: 2.21%

CN(c1ccc(C(=O)NCCCN2CCOCC2)c(Cl)c1)S(C)(=O)=O
cytotoxicity at 70.5 h: -8.19%

CCN(c1ccc(C(=O)N2CCCC(C)C2)cc1)S(=O)(=O)CC (configuration not stated)
cytotoxicity at 70.5 h: -4.35%

CCC(C(=O)NCc1ccncc1)N(c1cccc(C)c1)S(C)(=O)=O (configuration not stated)
cytotoxicity at 70.5 h: -9.28%

Cc1cccc(C(=O)Nc2ccc(OC3CCN(C)CC3)cc2)c1
cytotoxicity at 70.5 h: 19.2%

COCCCC1CCCN(C(=O)CCc2cc(O)no2)C1 (configuration not stated)
cytotoxicity at 70.5 h: -1.74%

CN1CCC(CCNC(=O)c2ccc(N(C)S(C)(=O)=O)cc2Cl)CC1
cytotoxicity at 70.5 h: -7.69%

Cc1nc(C2CCCN(C(=O)CO)C2)cc(N2CCOCC2)n1 (configuration not stated)
cytotoxicity at 70.5 h: -4.97%

N#Cc1ccccc1CN1C[C@@H]2CC[C@H](C1)N(CC1CC1)C2=O
cytotoxicity at 70.5 h: -7.57%

COc1ccc(OCc2cc(C(=O)N3CCN[C@H](C)C3)n[nH]2)c(Cl)c1
cytotoxicity at 70.5 h: -9.79%

CN(C)S(=O)(=O)N1CCN(c2ccnc(N3CCCC3)n2)CC1
cytotoxicity at 70.5 h: -12.4%

Cc1ccc([C@@H]2CN(S(=O)(=O)N(C)C)C[C@H]2N(C)C)cc1
cytotoxicity at 70.5 h: -5.83%

NC(=O)C1CCN(C(=O)CCn2ccc3cc(Br)ccc32)CC1
cytotoxicity at 70.5 h: -1.61%

CCCS(=O)(=O)N1CCN(c2cc(-n3cnc(C)c3C)nc(C)n2)CC1
cytotoxicity at 70.5 h: -4.37%

CCOC(=O)N1CCN(C(=O)c2ccc3ccn(C)c3c2)CC1
cytotoxicity at 70.5 h: -8.79%

C[C@@H](NC(=O)c1cccs1)c1onc(-c2cccnc2)c1C(=O)O
cytotoxicity at 70.5 h: 2.92%

CCNC(=O)[C@@H]1CCCN1[C@@H](C(=O)NC)c1ccccc1
cytotoxicity at 70.5 h: -8.33%

COCCOC[C@]1(CNCc2ccc(OC)cc2)C[C@@H](O)[C@@H](O)C1
cytotoxicity at 70.5 h: -7.9%

CNC(=O)[C@@H](c1ccccc1OC)N1CCC[C@H]1C(=O)NC(C)(C)C
cytotoxicity at 70.5 h: -8.72%

COC(=O)NCC1CCC2(CCNCC2)O1 (configuration not stated)
cytotoxicity at 70.5 h: 28.3%

COc1cccc(CNC[C@@]2(COc3cccnc3)C[C@@H](O)[C@@H](O)C2)c1
cytotoxicity at 70.5 h: -3.95%

O[C@@H]1C[C@@](CNCC2CCCC2)(COc2cccnc2)C[C@@H]1O
cytotoxicity at 70.5 h: -6.04%

COCC(=O)N1CCC2(CCC2N(C)Cc2ccco2)CC1 (configuration not stated)
cytotoxicity at 70.5 h: 3.06%

COCc1nn(CC2CC2)c2c1CN(Cc1cncn1C)CC2
cytotoxicity at 70.5 h: 2.02%

Cc1ccc(CN2CCCC3(CCCC(=O)N3)C2)s1 (configuration not stated)
cytotoxicity at 70.5 h: -8.14%

Cn1nc(COCC2CC2)c2c1CCN(Cc1ccco1)C2
cytotoxicity at 70.5 h: -9.54%

CN(C)C(=O)N1CCC2(CC1)CN(CC1CC1)CC21CCNC1=O (configuration not stated)
cytotoxicity at 70.5 h: 0.0936%

O=C(C1CCCCC1)N1CCCC2(CCN(c3cnccn3)CC2)C1
cytotoxicity at 70.5 h: 23.6%

Cc1cc(CN2CC[C@H]3[C@H]2CCN3CC(=O)N(C)C)oc1C
cytotoxicity at 70.5 h: -5%

COCCN1C(=O)CCC12CCCN(Cc1ccccc1F)C2 (configuration not stated)
cytotoxicity at 70.5 h: 31.9%
